Measurements reported in patent US20220251079A1, “BENZO[B][1,8]NAPHTHYRIDINE ACETIC ACID DERIVATIVES AND METHODS OF USE” (STINGTHERA, INC., priority 2019, published 2022).
pIC50: −log10 of the molar value.

What was measured:
hSTING-R232 = target: T1, hSTING-R232 (Homo sapiens, UniProt Q86WV6, H232R); experiment: STING Differential Scanning Fluorimetry (DSF) assay, human; assay type: binding; settings: human STING R232-WT, 5 μM protein
T1 construct: recombinant mouse or human STING protein (aa140-379); 6xHis-SUMO elsewhere) (cleaved yes); made in house
T1 sequence (Q86WV6 140-379 H232R): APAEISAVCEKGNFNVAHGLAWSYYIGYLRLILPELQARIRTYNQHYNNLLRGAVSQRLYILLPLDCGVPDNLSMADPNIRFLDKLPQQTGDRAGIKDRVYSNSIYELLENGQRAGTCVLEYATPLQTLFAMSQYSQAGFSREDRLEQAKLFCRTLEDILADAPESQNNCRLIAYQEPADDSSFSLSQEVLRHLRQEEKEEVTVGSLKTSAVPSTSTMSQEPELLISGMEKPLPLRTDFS
Description: A STING DSF assay was performed to determine protein thermostability shift in response to small molecule ligand binding. A STING thermostability shift assay based on differential scanning fluorimetry was used to measure (1) the net shift in melting temperature (ΔTm)between the apo and ligand-bound states of the STING protein and (2) the concentration of the thermal denaturation transition (FC50) as a surrogate measure of binding affinity (Kd). Briefly, recombinant mouse or human STING protein (aa140-379) comprising the C-terminal binding domain (R232-WT) were purified by affinity chromatography and further processed to remove the purification tag, followed by gel filtration to achieve purity >95%. Protein in assay buffer was transferred to a 384 well plate and incubated with the hydrophobic fluorescent dye SYBR Orange. A temperature ramp was applied to the plate and the resulting dye fluorescence was plotted as a function of temperature. The first derivative of this function (dF/dT) was then used to extrapolate the melting temperature of the protein at various concentrations of compound and determine the thermal denaturation profile of a protein/compound complex.
2. 5 μM purified Target STING Protein
4. Buffer: 100 mM NaCl, 30 mM HEPES, pH 7.5
5. Thermal Ramp: 0.5° C./min
7. 11 point, 2 fold dilution, duplicate, 300 μM high concentrations

[1] = target: T2, human STING protein (140-379) (Homo sapiens, UniProt Q86WV6, H232R); experiment: Radiometric filtration binding competition assay (WT_FBA_HIS-SUMO-hSWAT); settings: read-out: WT-hSWAT IC50
T2 construct: 6XHIS-SUMO-hSTING (140-379); made in house; host or cells: BL-21(DE3) E. coli, pET vector
T2 sequence (Q86WV6 140-379 H232R): as above
Description: A radiometric filtration binding competition assay was performed to quantify the binding affinity of compounds of the present application for the human or mouse STING protein, or associated HAQ human isoform. The competition format filtration binding assay detects the ability of small molecule compounds from binding to and inhibiting the subsequent binding of a tritiated [H3] […] The resulting dose response was fit by non-linear regression to determine an IC50 value, from which a Ki value for each compound was extrapolated.
Briefly, the recombinant C-terminal ligand binding domain of the human STING protein (140-379) or mouse STING protein (139-328) [0.5 μM] was incubated in the presence of a compound of the present application (8 point, 2 fold dilution starting at 300 μM) for 30 min or under control conditions. […] The resulting complexes were then filtered, dried, and scintillation fluid was added and the remaining radio signal was measured to determine the degree of compound ligand inhibition. This assay format was optimized for both the WT and HAQ isoforms of the human protein and the mouse orthologue protein.
Parameters optimized: • a. Form of protein: 6×HIS-SUMO tag or untagged • b. Concentration of target protein: Minimum concentration that achieved >80 max signal • c. Assay DMSO concentration: 10%-0.1% • d. Assay Buffer: Base (Tris or phosphate), Salt concentration, +/−Tween (0.1-2%) • e. […] Probe Concentration: Minimum concentration that achieved max assay window • g. Assay Format: Scintillation Proximity Bead or Filtration Binding Plate • h. Assay Plate: 384 vs 96 well format • i. Assay incubation times for successive incubation steps
WT-hSWAT: WT_FBA_HIS-SUMO-hSWAT IC50 (μM) (“WT”=Wild-type); and WT-mSWAT: MOUSE_FBA_HIS-SUMO-mSWAT C50 (μM) which is the mouse isoform of STING protein.

STING protein = target: T3, STING protein (Homo sapiens, UniProt Q86WV6, H232R); experiment: Cell based reporter assay of IRF activation (THP1-dual-KI R232, IRF luciferase); settings: THP-1; read-out: THP1-dual-KI R232_IRF(Luciferase)_Activity Maximum measured (%)
T3 construct: host or cells: THP-1 dual reporter cells, TMEM173 modified from HAQ to R232 (THP1-dual-KI R232)
T3 sequence (Q86WV6 whole entry H232R): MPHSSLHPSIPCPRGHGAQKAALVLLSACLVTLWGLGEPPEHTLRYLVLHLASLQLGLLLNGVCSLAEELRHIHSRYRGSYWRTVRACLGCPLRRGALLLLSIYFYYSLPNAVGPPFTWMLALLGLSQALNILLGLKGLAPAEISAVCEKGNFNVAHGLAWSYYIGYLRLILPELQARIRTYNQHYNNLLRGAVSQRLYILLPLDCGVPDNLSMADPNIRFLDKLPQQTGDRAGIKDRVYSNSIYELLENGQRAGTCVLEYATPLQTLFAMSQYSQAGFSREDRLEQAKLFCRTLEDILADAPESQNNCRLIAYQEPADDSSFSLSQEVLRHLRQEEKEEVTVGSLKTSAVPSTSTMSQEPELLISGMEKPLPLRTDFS
Excerpt: Cell reporter assays were developed to measure the ability of compounds of the application to activate the STING protein and activate both IRF/IFN and the NFkB signaling pathways in the myeloid derived cell line THP-1, which is commercially available from several suppliers. Briefly, THP-1 monocytes were transfected and selected for stable integration of 2 reporter constructs. Clones incorporating stably integrated vectors were further selected by antibiotic resistance to blastocidin and zeocin. The reporter constructs included: (1) firefly luciferase reporter gene under the control of an ISG54 promoter fused to five interferon (IFN)-stimulated response elements to measure IRF transcription factor binding activity and (2) secreted embryonic alkaline phosphatase reporter gene under transcription control of an IFN-beta minimal promoter fused to 5 copies of the NFkB consensus transcriptional response element and 3 copies of the c-Rel binding site.
The resulting THP-1 cell line was further modified to incorporate 3 amino acid point mutations (H71R A230G Q293R). This modification of the native TMEM173 gene in THP-1 cells (HAQ) was designed to produce a cell reporter that expressed the most common allelic variant in the human population (THP-1 R232, available from InvivoGen). Alternatively, the TMEM173 gene was knocked out to provide a congenic control to counter-screen for compound activation that was independent of the STING protein (THP-1 STING KO).
Once cell lines were established, reporter assay protocols were developed and optimized to screen small molecule compounds for agonist activity. Assay optimization for efficacy and Z′ value included titration of the following parameters:
1. No pre-activation with PMA
2. […]cells/well in 96 well plate format
7. Cell Titer Glo reagent (Promega) following supermatant removal
9. 8 point, 2 fold, duplicate starting at 150 μM PP28T

Row | WT_DSF_hSWAT Tm Shift (° C.) (hSTING-R232) | pIC50 [1] | Emax (STING protein) [%] | Structure (SMILES)
1 | D (“D” > 7° C.) | 4.00 to 4.70 | > 50 | CO[C@H]1C[C@@H](N(C)c2ccc3c(=O)c4ccc(Cl)c(SC)c4n(CC(=O)O)c3n2)C1 (single isomer, unassigned) [Compound 44, 2-(8-chloro-2-(((1s,3s)-3-methoxycyclobutyl) (methyl)amino)-9-(methylthio)-5-oxobenzo[b][1,8]naphthyridin-10(5H)-yl)acetic acid]
2 | D (“D” > 7° C.) | > 4.70 | > 50 | CO[C@H]1C[C@H](N(C)c2ccc3c(=O)c4ccc(Cl)c(SC)c4n(CC(=O)O)c3n2)C1 (single isomer, unassigned) [Compound 70, 2-(8-chloro-2-(((1r,3r)-3-methoxycyclobutyl)(methyl)amino)-9-(methylthio)-5-oxobenzo[b][1,8]naphthyridin-10(5H)-yl)acetic acid]
3 | D (“D” > 7° C.) | 3.52 to 4.00 | > 50 | COc1c(Cl)ccc2c(=O)c3ccc(C(C)C)nc3n(CC(=O)O)c12 [Compound 1]
4 | D (“D” > 7° C.) | 4.00 to 4.70 | > 50 | Cc1ccc2c(=O)c3ccc(Cl)c(N(C)C)c3n(CC(=O)O)c2n1 [Compound 4]
5 | D (“D” > 7° C.) | > 4.70 | > 50 | CN(C)c1c(Cl)ccc2c(=O)c3ccc(C(C)(C)C)nc3n(CC(=O)O)c12 [Compound 5, [2-tert-butyl-8-chloro-9-(dimethylamino)-5-oxobenzo[b]1,8-naphthyridin-10-yl]acetic acid]
6 | D (“D” > 7° C.) | > 4.70 | > 50 | CN(C)c1c(Cl)ccc2c(=O)c3ccc(Nc4ccccc4)nc3n(CC(=O)O)c12 [Compound 6]
7 | D (“D” > 7° C.) | > 4.70 | > 50 | CC(C)c1ccc2c(=O)c3ccc(Cl)c(N(C)C)c3n(CC(=O)O)c2n1 [Compound 7]
8 | D (“D” > 7° C.) | > 4.70 | > 50 | CCc1ccc2c(=O)c3ccc(Cl)c(N(C)C)c3n(CC(=O)O)c2n1 [Compound 8]
9 | C (“C” = 2-7° C.) | 3.52 to 4.00 | > 50 | Cc1ccc2c(=O)c3c(O)cc(Cl)c(N(C)C)c3n(CC(=O)O)c2n1 [Compound 9]
10 | C (“C” = 2-7° C.) | < 3.52 | > 50 | Cc1ccc2c(=O)c3ccc(Cl)c(N(C)C)c3n(CC(=O)NS(C)(=O)=O)c2n1 [Compound 10]
11 | B (“B” = 0-2° C.) | < 3.52 | < 5 | Cc1ccc2c(=O)c3ccc(Cl)c(N(C)C)c3n(CC(=O)NC#N)c2n1 [Compound 11]
12 | D (“D” > 7° C.) | > 4.70 | > 50 | CSc1c(Cl)ccc2c(=O)c3ccc(C(C)(C)C)nc3n(CC(=O)O)c12 [Compound 12]
13 | B (“B” = 0-2° C.) | < 3.52 | > 50 | CSc1ccc2c(=O)c3ccc(C(C)(C)C)nc3n(CC(=O)O)c2c1SC [Compound 13]
14 | B (“B” = 0-2° C.) | < 3.52 | > 50 | CC(C)(C)c1ccc2c(=O)c3ccc(Cl)c(F)c3n(CC(=O)O)c2n1 [Compound 14]
15 | C (“C” = 2-7° C.) | 4.00 to 4.70 | > 50 | CCc1nc2c(cc1Cl)c(=O)c1ccc(Cl)c(N(C)C)c1n2CC(=O)O [Compound 17, 2-(3,8-dichloro-9-(dimethylamino)-2-ethyl-5-oxobenzo[b][1,8]naphthyridin-10(5H)-yl)acetic acid]
16 | C (“C” = 2-7° C.) | > 4.70 | > 50 | CCOc1nc2c(cc1Cl)c(=O)c1ccc(Cl)c(N(C)C)c1n2CC(=O)O [Compound 18, 2-(3,8-dichloro-9-(dimethylamino)-2-ethoxy-5-oxobenzo[b][1,8]naphthyridin-10(5H)-yl) acetic acid]
17 | D (“D” > 7° C.) | 4.00 to 4.70 | > 50 | CN(C)c1ccc2c(=O)c3ccc(Cl)c(N(C)C)c3n(CC(=O)O)c2n1 [Compound 19, sodium 2-(8-chloro-2,9-bis(dimethylamino)-5-oxobenzo[b][1,8]naphthyridin-10(5H)-yl)acetate]
18 | C (“C” = 2-7° C.) | 3.52 to 4.00 | > 50 | CN(C)c1c(Cl)ccc2c(=O)c3ccc(C(C)(C)C(N)=O)nc3n(CC(=O)O)c12 [Compound 20, 2-(2-(1-amino-2-methyl-1-oxopropan-2-yl)-8-chloro-9-(dimethylamino)-5-oxobenzo[b][1,8]naphthyridin-10(5H)-yl)acetic acid]
19 | C (“C” = 2-7° C.) | 4.00 to 4.70 | > 50 | COc1ccc2c(=O)c3ccc(Cl)c(N(C)C)c3n(CC(=O)O)c2n1 [Compound 21, 2-(8-chloro-9-(dimethylamino)-2-methoxy-5-oxobenzo[b][1,8]naphthyridin-10(5H)-yl) acetic acid]
20 | D (“D” > 7° C.) | 4.00 to 4.70 | > 50 | CSc1c(Cl)ccc2c(=O)c3ccc(N(C)C)nc3n(CC(=O)O)c12 [Compound 22, sodium 2-(8-chloro-2-(dimethylamino)-9-(methylthio)-5-oxobenzo[b][1,8]naphthyridin-10(5H)-yl)acetate]
21 | C (“C” = 2-7° C.) | 3.52 to 4.00 | > 50 | CCOc1c(Cl)ccc2c(=O)c3ccc(N(C)C)nc3n(CC(=O)O)c12 [Compound 23, sodium 2-(8-chloro-2-(dimethylamino)-9-ethoxy-5-oxobenzo[b][1,8]naphthyridin-10(5H)-yl)acetate]
22 | C (“C” = 2-7° C.) | 3.52 to 4.00 |  | CO[C@H]1C[C@H](N(C)c2ccc3c(=O)c4ccc(C)c(N(C)C)c4n(CC(=O)O)c3n2)C1 [Compound 66, 2-(9-(dimethylamino)-2-(((1r,3r)-3-methoxycyclobutyl)(methyl)amino)-8-methyl-5-oxobenzo[b][1,8]naphthyridin-10(5H)-yl)acetic acid]
23 | D (“D” > 7° C.) | > 4.70 |  | CSc1c(Cl)ccc2c(=O)c3cc(Cl)c(N(C)CC4CCOCC4)nc3n(CC(=O)O)c12 [Compound 76, sodium 2-(3,8-dichloro-2-(methyl((tetrahydro-2H-pyran-4-yl)methyl)amino)-9-(methylthio)-5-oxobenzo[b][1,8]naphthyridin-10(5H)-yl)acetate]
